Laboratory results taken from PMC8267647, “Metallacarborane Derivatives Effective against Pseudomonas aeruginosa and Yersinia enterocolitica” (International Journal of Molecular Sciences, 2021).
Read-outs that look alike come from different tables or passages of the source.

Legend:
mammalian cell culture = settings: cited from earlier work
BALB/3T3 = assay: Antiproliferative SRB assay; type: cell-based, mouse; settings: SRB method, 72 h of treatment; highest concentration 100 μM; read-out: IC50 72h (95% CI) BALB/3T3
Excerpt: (§1) Rockville, Maryland, USA).

MCF 10A = assay: Antiproliferative SRB assay; type: cell-based, human; settings: SRB method, 72 h of treatment; highest concentration 100 μM; read-out: IC50 72h (95% CI) MCF 10A
Excerpt: as §1

[1] = test system: Y. enterocolitica strain PCM 2080 grown in the presence of 200 μM compounds; assay: Cross-resistance generation: IC50 on compound-evolved bacteria; type: cell-based, Yersinia enterocolitica; settings: read-out: Resistance (IC50 value against the selected compound)
Description: (§2) Bacterial growth inhibition was measured on a Spark 10 M (Tecan, AT) microplate reader as described previously (Swietnicki et al., 2019). Briefly, a bacterial culture in LB medium grown at 37 °C overnight was diluted 1:100 with a fresh medium and aliquoted into a 96-well plate at 98 μL/well with a multichannel pipette. A 2 μL aliquot of compound serially diluted in DMSO was added in triplicates, the plate was covered with a lid or a transparent plate sealer, and incubated at 37 °C for up to 24 h. Bacterial growth was monitored by following an A600 reading every hour. After the experiment, the data were stored in Excel format, transferred into KaleidaGraph software (Synergy Software, Reading, PA, USA) and the A600 was plotted versus log [Concentration]. The IC50 values were determined by fitting the readings at the 8 h time point to a sigmoidal model of inhibition. Each experiment was repeated at least 3 times to verify the values.
The evolution was performed in parallel using blood agar and LB agar plates prepared in-house. Briefly, a 200 μL aliquot of 200 μM compound in PBS was added to a fresh agar plate, spread on the surface, and left to dry in a BSC cabinet for approximately 30 min. After that time, a single colony from an overnight culture on a plate was spread on the surface before the plate was covered with a lid and left at 37 °C to incubate overnight. The procedure was repeated at least nine times for each plate. After the last step, a single colony was selected from a plate and added to a 3 mL aliquot of LB medium. […] Dual selection on different plates was necessary in cases where the growth inhibition was too strong to obtain single colonies on LB agar plates. […] Until then, the colonies were supplied from bacteria grown on the blood agar plates.

[2] = test system: drug-resistant Y. enterocolitica strain 2080; assay: SEM of drug-resistant bacteria; type: cell-based, Yersinia enterocolitica; settings: for bacterial growth seen under SEM: bacteria passaged at least nine times with 200 μM compound; for mechanism of biological activity: from SEM, 200 μM
Description: Scanning electron microscopy of Y. enterocolitica was performed at a low accelerating voltage of the primary beam without any coating or heavy-metal contrasting of the samples, as described in previous work. Bacteria were applied onto a polished silicon crystal chip and allowed to adhere for 30 min. The samples were fixed with 2.5% glutaraldehyde in 0.1 M cacodylate buffer for 30 min at 4 °C, then washed in water and dehydrated in a series of methanol solutions (25%-50%-75%-100%-100%) in one-hour steps at 4 °C. Samples underwent critical point drying with methanol exchanged for liquid CO2 in an automatized approach, (CPD300 AUTO, Leica Microsystems, Vienna, Austria) and imaged with a cross-beam scanning electron microscope equipped with a Schottky field-emission cathode (Auriga 60, Carl Zeiss, Oberkochen, Germany) at 0.8 kV accelerating voltage. Thus, the imaging was performed within a mode referred to as the low-voltage, field-emission scanning electron microscopy (LV-FESEM) of nonlabeled, critical point-dried samples.
Figure 3 Scanning electron microscopy of drug-resistant Y. enterocolitica strain 2080. […] After exposure to compound 1 for nine passages, there were only fragments of organic debris visible (B). In the presence of compounds 7 and 3, there were multiple bacteria observed with apparently normal morphology. Scale bars: (A) and (B) 500 nm, (C) and (E) 2.5 μm, (D) and (F) 1 μm.

[3] = test system: zebrafish (Danio rerio) larvae; assay: Danio rerio toxicity assay (modified Fish Embryo Toxicity test); type: in vivo; settings: for mortality rate: day 5; for visible morphological deformities: concentrations up to 10 μM; for mortality (share of the population): 10 μM, day 5 post-exposure
Description: To determine acute toxicity of examined compounds modified Fish Embryo Toxicity (FET) test was performed of zebrafish (Danio rerio) according to OECD Test Guideline 236. Briefly, the collected embryos were transferred to a Petri dish with E3 medium (5 mM NaCl, 0.33 mM MgCl2, 0.33 mM CaCl2, 0.17 mM KCl; pH 7.2) and then placed in 24-well plates, 5 embryos per well, 10 per group. Stock solutions of boron cluster compounds were prepared in DMSO. In these experiments, three series of solutions with different concentrations were employed, which were freshly prepared by dissolving stock solutions in the E3 solution each time directly before addition to the wells. The solutions were changed once daily and the embryos were maintained in the incubator at 28.5 °C. Zebrafish embryos were evaluated for developmental abnormalities and viability at 24 h intervals for up to 5 days using a stereomicroscope (Zeiss Axio Vert, ZEISS, Germany). Morphological deformities of the heart, dorsal string, and tail development were measured and compared with the control embryos. Image analysis was performed to determine the percentage of dead and malformed embryos over time using Zeiss software. The experiment was performed in triplicate. Fish were taken from own fish facility of The Centre of Experimental Medicine, Medical University of Lublin. For the experiment AB OMD strain was used.
Figure 4 Toxicity of selected compounds on zebrafish (Danio rerio) larvae. Fish larvae were grown in 6-well plates in the presence of compounds for up to 5 days and the morphological deformities were analyzed from images as described under Materials and Methods. Representative photographs are shown. S, scoliosis; TA, tail autophagy; PE, pericardial edema.
Figure 5 Mortality rates of selected compounds on zebrafish (Danio rerio) larvae. The population size (n = 10) from Figure 4 was followed up to day 5 as described under Materials and Methods. Representative graphs are shown.

[4] = test system: Pseudomonas aeruginosa strain PCM 2058; assay: Bacterial growth inhibition IC50 in LB medium; type: cell-based; settings: 8-h time point, Luria-Bertani medium, 37 °C; ± SEM; read-out: IC50 for growth inhibition, Pa 2058
Description: as §2

[5] = test system: Yersinia enterocolitica strain PCM 2090; assay: Bacterial growth inhibition IC50 in LB medium; type: cell-based; settings: 8-h time point, Luria-Bertani medium, 37 °C; ± SEM; read-out: IC50 for growth inhibition, Ye 2090
Description: as §2

[6] = test system: Pseudomonas aeruginosa strain PCM 499; assay: Bacterial growth inhibition IC50 in LB medium; type: cell-based; settings: 8-h time point, Luria-Bertani medium, 37 °C; ± SEM; read-out: IC50 for growth inhibition, Pa499
Description: as §2

[7] = test system: Yersinia enterocolitica strain PCM 2080; assay: Bacterial growth inhibition IC50 in LB medium; type: cell-based; settings: 8-h time point, Luria-Bertani medium, 37 °C; ± SEM; read-out: IC50 for growth inhibition, Ye 2080
Description: as §2

MRSA = settings: after 20 passages; cited from earlier work
[8] = strain PCM 2080 grown with 200 μM compound 1 for at least nine generations
[9] = strain PCM 2080 grown with 200 μM compound 3 for at least nine generations
[10] = strain PCM 2080 grown with 200 μM compound 7 for at least nine generations
[11] = 2 μM, up to day 5 post-exposure
[12] = concentrations lower than 20 μM except 2 μM

Substance	IC50 (BALB/3T3) [µM]	IC50 (MCF 10A) [µM]	IC50 [4] [µM]	IC50 [5] [µM]	IC50 [6] [µM]	IC50 [7] [µM]	other results
Cs[8,8′-I2-3,3′-Co(1,2-C2B9H10)2] [Compound 1]	17	59.8	28.3 ± 6	2.5 ± 1.4	11.4 ± 1	4.8 ± 3	change of ED50 versus COSAN (mammalian cell culture; mammalian cells): decreases the ED50 values approximately threefold; IC50 [1, 8]: 2.6 ± 0.2 µM; IC50 [1, 9]: 4 ± 1 µM; IC50 [1, 10]: 3.1 ± 1 µM; bacterial growth seen under SEM [2]: generally inhibited bacterial growth; mechanism of biological activity [2]: most likely being bactericidal; mortality [3, 11]: none of the animals died; mortality ([3]; 20 μM, day 4): lethal to all larvae; mortality rate [3, 12]: 20%; visible morphological deformities [3]: induced visible morphological deformities
Cs[8-O-n-Bu-8′-I-3,3′-Co(1,2-C2B9H10)2] [Compound 2]	3.7	16.1	28 ± 8	2.4 ± 0.7	12.1 ± 4	4.3 ± 1.5	–
[8-NH2-cyclo-C6H11-8′-I-3,3′-Co(1,2-C2B9H10)2] [Compound 9]	0.067	0.082	–	–	–	–	–
[8-NH2-iso-Bu-8′-I-3,3′-Co(1,2-C2B9H10)2] [Compound 7]	0.024	0.115	24.7 ± 8	6.2 ± 0.7	58.7 ± 20	1.8 ± 0.8	IC50 [1, 8]: > 37 µM; IC50 [1, 9]: > 100 µM; IC50 [1, 10]: > 100 µM; bacterial growth seen under SEM [2]: did not inhibit the growth of bacteria; mechanism of biological activity [2]: blockage of bacterial cell division
Cs[8-O-iso-Bu-8′-I-3,3′-Co(1,2-C2B9H10)2] [Compound 3]	10.2	52.5	59 ± 30	3.4 ± 1	16.9 ± 8	4.2 ± 1.8	IC50 [1, 8]: 4.7 ± 1 µM; IC50 [1, 9]: 10.4 ± 3 µM; IC50 [1, 10]: 3.7 ± 1.2 µM; bacterial growth seen under SEM [2]: did not inhibit the growth of bacteria; mechanism of biological activity [2]: blockage of bacterial cell division
[8-NH2-CHEt2-8′-I-3,3′-Co(1,2-C2B9H10)2] [Compound 8]	0.023	0.045	–	–	–	–	–
8-ethoxy-8′-iodo derivative of cobalt bis(1,2-dicarbollide) [Compound K121]	–	–	–	–	–	–	generation of resistance (MRSA): not able to generate resistance
3,3′-commo-bis[closo-1,2-dicarba-3-cobaltadodecaborate](1-) [COSAN, reference compound]	–	–	–	–	–	–	concentration that reversibly blocks cell growth (mammalian cell culture): above 100 µM
Cs[8-O-CHEt2-8′-I-3,3′-Co(1,2-C2B9H10)2] [Compound 4]	11.3	50	72 ± 30	5.3 ± 1	52.9 ± 20	6.7 ± 2.3	mortality [3, 11]: none of the animals died; mortality (share of the population) [3]: ≤ 20%; mortality ([3]; 20 μM, day 4): lethal to all larvae; mortality rate [3, 12]: 20%; visible morphological deformities [3]: did not induce visible deformities
[8-NH2-n-Bu-8′-I-3,3′-Co(1,2-C2B9H10)2] [Compound 6]	0.29	–	–	–	–	–	–
Cs[8-O-cyclo-C6H11-8′-I-3,3′-Co(1,2-C2B9H10)2] [Compound 5]	11.7	46.3	52.1 ± 15	3.3 ± 1	52.1 ± 10	7.5 ± 4	mortality (share of the population) [3]: ≤ 20%; morphological deformities ([3]; 20 μM): deformities of dorsal string; mortality rate ([3]; 20 μM): 20%; visible morphological deformities [3]: did not induce visible deformities
